One test concerns the target T1, VDR (Mus musculus, UniProt P48281).
T1 construct: endogenous in cells; host or cells: 4TO7 and 4T1 mouse triple-negative breast cancer cells
T1 sequence (P48281 1-422): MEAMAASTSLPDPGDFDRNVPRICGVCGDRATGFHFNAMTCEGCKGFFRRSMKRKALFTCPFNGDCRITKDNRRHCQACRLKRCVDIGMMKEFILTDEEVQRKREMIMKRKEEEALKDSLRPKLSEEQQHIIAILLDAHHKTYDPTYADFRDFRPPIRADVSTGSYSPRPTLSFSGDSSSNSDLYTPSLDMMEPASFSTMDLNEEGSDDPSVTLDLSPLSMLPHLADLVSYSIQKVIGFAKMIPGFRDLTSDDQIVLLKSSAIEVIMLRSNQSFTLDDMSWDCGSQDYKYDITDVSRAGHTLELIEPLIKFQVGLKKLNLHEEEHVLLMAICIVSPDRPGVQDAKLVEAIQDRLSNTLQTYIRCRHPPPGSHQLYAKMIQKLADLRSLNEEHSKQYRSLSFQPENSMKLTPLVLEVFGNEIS
The test is described as follows: Cyp24a1 induction assay for VDR agonism in 4T1 cells. Type of test: cell-based. To be noted: 24 h. The protocol:
Figure 5 (a) and (b) Analysis of induced Cyp24a1 expression in 4TO7 (a) and 4T1 (b) cells to test for VDR agonism of DK-406 and heterocyclic analogues after 24 h treatment. c-e. Analysis of the cytotoxicity of hybrid compounds after 24 h using the MTGlo assay (see Methods for details) in 4TO7 (c), 4T1 (d) and MDA-MB-231 (e) cells. […] Each condition was compared to control. *: p ≤ 0.05, **: p ≤ 0.01, ***: p ≤ 0.001, ****: p ≤ 0.0001, ns: not significant.
As previously, we were interested in studying the efficacy of hybrids in models of TNBC. We used the 4T1 cell line[20] as well as the related TNBC cell line 4TO7, which was derived from the same mouse tumor as 4T1 cells in Balb/c mice[33]. 4TO7 cells readily form primary tumors. […] These lines also have the advantage that anti-tumor efficacy studies can be performed in Balb/c mice, which have intact immune systems. Compounds were initially tested for VDR agonist activity in 4TO7 cells by screening induction of the VDR target gene Cyp24a1. […] The pyridyl hybrids were then tested for efficacy in vitro in 4TO7 and 4T1 cells using an MT-Glo assay in which only viable cells can convert a precursor into a substrate for a luciferase bioluminescence assay (Fig. 5c,d; see Methods for details).
Mouse 4T07 cells and 4T01 cells were cultured in DMEM (319–005-CL; WISENT Inc.) supplemented with 10% heat-inactivated FBS. […]

Test [1] relates to H3K9 and H3K27 acetylation (class I HDACs). The test is described as follows: Western blotting of H3K9 and H3K27 acetylation in 4TO7 cells. Type of test: cell-based, mouse. To be noted: 10^–5 M, 6 h, western blot. The method, then: The hybrids were assessed to determine their HDACi and VDR agonist activity as well as their antiproliferative properties relative to DK-406. HDACi activity was assessed in vitro using an acetylated lysine substrate that releases a fluorescent reporter upon HDACi deacetylation and subsequent trypsin digestion. Increasing sidechain length of pyrimidine hybrids enhanced the potency of HDAC6 inhibition, with several compounds inhibiting HDAC6 with a sub-micromolar IC50, similar to that of DK-406 (Fig. 4a). […] Next, we analyzed the effects of compounds on levels of H3K9 and H3K27 acetylation in 4TO7 cells, which are controlled by class I HDACs[29],[30]. […] We also tested the capacity of analogues to induce tubulin acetylation, controlled by class II enzyme HDAC6[32], in 4TO7 cells. […]
Figure 4 (a) Results of in vitro assays for inhibition of purified HDAC2 and HDAC6 by DK-406 and heterocyclic hybrids as measured by inhibition of deacetylation of a fluorometric substrate (see Methods for details). […]
After treatments, 4T07 cells were solubilized in Lysis Buffer (20 mM Tris, pH 8, 150 mM NaCl, 1% Triton X-100, 3,5 mM SDS, 13 mM deoxycholic acid) and proteins extracted were separated on a 4–15% Tris/Glycine/SDS gel (BIO RAD). […] Signal was detected using Clarity ECL chemiluminescent substrates (Bio-Rad) and ChemiDoc Imaging System from the same company was used to quantify the intensity of bands. […]

“Also recorded” adds a separate entry of the source.

For `CCC(CC)(c1ccc(OCCCCCC(=O)NO)cc1)c1ccc(OCC(O)C(C)(C)C)c(C)n1` (stereo not shown) [AM-193], the “VDR agonist activity (Cyp24a1 induction)” value on VDR is on record as “full agonists; also recorded: potency of AM-193 was confirmed”. The “H3 acetylation at K9 and K27” value in test [1] is listed as “enhanced H3 acetylation, although to a lesser degree than DK-406”.

`CCC(CC)(c1ccc(C(=O)NCCCCCC(=O)NO)cc1)c1ccc(OCC(O)C(C)(C)C)c(C)c1` (stereo not shown) [DK-406]: on VDR, the “VDR agonist activity (Cyp24a1 induction)” value is recorded as “full agonists”. For the same compound, the “H3 acetylation at K9 and K27” value in test [1] is “induced H3 acetylation at K9 and K27”.

Source of the values: PMC9038752, “Molecular mechanisms of bifunctional vitamin D receptor agonist-histone deacetylase inhibitor hybrid molecules in triple-negative breast cancer” (Scientific Reports, 2022).
